Structures can show the parent of a compound that is named as a salt.
Experiments:
[1] = target: T1, human adenosine A2A receptors expressed in HEK-293 cells (Homo sapiens, UniProt P29274); experiment: Binding affinities at hA2A receptors, displacement of [3H]-CGS 21680
T1 construct: expressed in transfected cells; host or cells: HEK-293 cells
T1 sequence (P29274 whole entry): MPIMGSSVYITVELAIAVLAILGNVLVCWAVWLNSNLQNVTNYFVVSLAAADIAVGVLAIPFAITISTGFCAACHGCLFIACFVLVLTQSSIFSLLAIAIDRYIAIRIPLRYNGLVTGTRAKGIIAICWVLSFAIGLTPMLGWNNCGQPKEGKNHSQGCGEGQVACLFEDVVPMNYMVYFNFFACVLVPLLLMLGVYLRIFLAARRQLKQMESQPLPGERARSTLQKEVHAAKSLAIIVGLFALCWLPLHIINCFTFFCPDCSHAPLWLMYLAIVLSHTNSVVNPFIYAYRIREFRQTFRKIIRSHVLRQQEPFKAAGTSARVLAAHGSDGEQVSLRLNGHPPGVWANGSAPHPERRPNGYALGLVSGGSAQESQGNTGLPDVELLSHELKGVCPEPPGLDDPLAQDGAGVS

Molecule	Ki [1]	melting point
CCCc1nc(C(C#N)c2ccccn2)c2sccc2n1 (stereo not drawn) [Example 60, 2-n-Propyl-α-(2-pyridyl)thieno[3,2-d]pyrmidine-4-acetonitrile]	237 nM	185 to 187 °C
O=C(c1ccccc1)c1nc(Cl)nc2ccsc12 [Example 28, 2-Chlorothieno[3,2-d]pyrimidin-4-yl phenylmethanone]	865 nM	162.2 to 163.1 °C
CCCc1nc(C(=O)c2cccs2)c2sccc2n1 [Example 63, 2-n-Propylthieno[3,2-d]pyrimidin-4-yl 2-thienylmethanone]	37 nM	122 to 125 °C
O=C(c1ccccc1Cl)c1nc(C(F)(F)F)nc2ccsc12 [Example 8, 2-Chlorophenyl 2-trifluoromethylthieno[3,2-d]pyrimidin-4-ylmethanone]	586 nM	122 to 123 °C
NCCNc1nc(C(=O)c2cccs2)c2sccc2n1 [Example 55, 2-(2-Aminoethylamino)thieno[3,2-d]pyrimidin-4-yl 2-thienylmethanone dihydrochloride]	78 nM	–
CN(C)c1nc(C(=O)c2ccccc2)c2sccc2n1 [Example 40, 2-Dimethylaminothieno[3,2-d]pyrimidin-4-yl phenylmethanone]	295 nM	116.5 to 117 °C
COc1nc(C(=O)c2cccs2)c2scc(C)c2n1 [Example 37, 2-Methoxy-7-methylthieno[3,2-d]pyrimidin-4-yl 2-thienylmethanone]	361 nM	144 to 146 °C
O=C(c1ccc(Br)s1)c1nc(C(F)(F)F)nc2ccsc12 [Example 46, 5-Bromo-2-thienyl 2-trifluoromethylthieno[3,2-d]pyrimidin-4-ylmethanone]	101 nM	180 to 182 °C
O=C(c1cccs1)c1nc(Cl)nc2ccsc12 [Example 44, 2-Chlorothieno[3,2-d]pyrimidin-4-yl 2-thienylmethanone]	91 nM	190.5 to 191 °C
α-(3-Thienyl-2-trifluoromethylthieno[3,2- d]pyrimidine-4-acetonitrile [Example 17]	895 nM	–
CN(C)c1ccc(C(=O)c2nc(C(F)(F)F)nc3ccsc23)s1 [Example 56, 5-Dimethylamino-2-thienyl 2-trifluoromethylthieno[3,2-d]pyrimidin-4-ylmethanone]	309 nM	188 to 191 °C
α-(2-Pyridyl-2-trifluoromethylthieno[3,2- d]pyrimidine-4-acetonitrile [Example 18]	346 nM	–
Cc1ccsc1C(=O)c1nc(C(F)(F)F)nc2ccsc12 [Example 42, 3-Methyl-2-thienyl 2-trifluoromethylthieno[3,2-d]pyrimidin-4-ylmethanone]	26 nM	201 to 202 °C
CC(C)(C)OC(=O)NCCNc1nc(C(=O)c2cccs2)c2sccc2n1 [Example 54, Tert-butyl (2-(4-(2-thienylcarbonyl)thieno[3,2-d]pyrimidin-2-yl)aminoethyl)carbamate]	36 nM	199.9 to 200.7 °C
Cc1ccccc1C(=O)c1nc(C(F)(F)F)nc2ccsc12 [Example 11, 2-Methylphenyl 2-trifluoromethylthieno[3,2-d]pyrimidin-4-ylmethanone]	330 nM	116 to 118 °C
O=C(c1cc(Br)cs1)c1nc(C(F)(F)F)nc2ccsc12 [Example 57, 4-Bromo-2-thienyl 2-trifluoromethylthieno[3,2-d]pyrimidin-4-ylmethanone]	800 nM	178 to 179 °C
C=CCNc1nc(C(=O)c2cccs2)c2sccc2n1 [Example 59, 2-Allylaminothieno[3,2-d]pyrimidin-4-yl 2-thienylmethanone]	18 nM	142.1 to 142.9 °C
O=C(c1ccc(Cl)s1)c1nc(C(F)(F)F)nc2ccsc12 [Example 12, 5-Chloro-2-thienyl 2-trifluoromethylthieno[3,2-d]pyrimidin-4-ylmethanone]	31 nM	165 to 167 °C
CSc1nc(C(=O)c2cccs2)c2sccc2n1 [Example 48, 2-Methylthiothieno[3,2-d]pyrimidin-4-yl 2-thienylmethanone]	151 nM	189.7 to 190.6 °C
CCc1nc(C(C#N)c2ccccn2)c2sccc2n1 (stereo not drawn) [Example 34, 2-Ethyl-α-(2-pyridyl)thieno[3,2-d]pyrimidine-4-acetonitrile]	245 nM	240 to 242 °C
CSc1nc(C(=O)c2cccs2)c2scc(C)c2n1 [Example 39, 7-Methyl-2-methylthiothieno[3,2-d]pyrimidin-4-yl 2-thienylmethanone]	575 nM	144 to 166 °C
CC(C)Nc1nc(C(=O)c2cccs2)c2sccc2n1 [Example 61, 2-Isopropylaminothieno[3,2-d]pyrimidin-4-yl 2-thienylmethanone]	21 nM	134.8 to 135.6 °C

Results, then the molecule that gave them:

Ki [1]	melting point	Molecule
46 nM	> 120 °C (dec.)	O=C(c1cccs1)c1nc(NCCN2CCOCC2)nc2ccsc12 [Example 78, 2-(2-(4-Morpholinyl)ethylamino)thieno[3,2-d]pyrimidin-4-yl 2-thienylmethanone]
126 nM	114.1 to 114.9 °C	O=C(c1ccccc1)c1nc(NCCO)nc2ccsc12 [Example 72, 2-(2-Hydroxyethylamino)thieno[3,2-d]pyrimidin-4-yl phenylmethanone]
90 nM	185 to 186 °C	Cc1cc(C(=O)c2nc(C(F)(F)F)nc3ccsc23)oc1C [Example 74, 4,5-Dimethyl-2-furyl 2-trifluoromethylthieno[3,2-d]pyrimidin-4-ylmethanone]
8 nM	143.3 to 143.7 °C	CCOC(=O)CCCNc1nc(C(=O)c2cccs2)c2sccc2n1 [Example 76, Ethyl 4-(4-(2-thienylcarbonyl)thieno[3,2-d]pyrimidin-2-ylamino)butanoate]
97 nM	199.9 to 200.5 °C	O=C(c1cccs1)c1nc(N2CCOCC2)nc2ccsc12 [Example 77, 2-(4-Morpholinyl)thieno[3,2-d]pyrimidin-4-yl 2-thienylmethanone]
7 nM	–	C[C@@H](CO)Nc1nc(C(=O)c2cccs2)c2sccc2n1 [Example 101, (2S)-2-(1-Hydroxy-2-propylamino)thieno[3,2-d]pyrimidin-4-yl 2-thienylmethanone]
7 nM	–	O=C(c1cccs1)c1nc(NCCNC(=O)C2CCCCC2)nc2ccsc12 [Example 151, N-(2-(4-(2-Thienylcarbonyl)thieno[3,2-d]pyrimidin-2-yl)aminoethyl)cyclohexylcarboxamide]
2 nM	–	C[C@H](CO)Nc1nc(C(=O)c2cccs2)c2sccc2n1 [Example 102, (2R)-2-(1-Hydroxy-2-propylamino)thieno[3,2-d]pyrimidin-4-yl 2-thienylmethanone]
218 nM	–	CN(C)CCNc1nc(C(=O)c2cccs2)c2sccc2n1 [Example 66, 2-(2-Dimethylaminoethylamino)thieno[3,2-d]pyrimidin-4-yl 2-thienylmethanone dihydrochloride]
858 nM	–	CN(C)c1nc(C(=O)c2cccs2)c2scc(-c3ccco3)c2n1 [Example 79, 2-Dimethylamino-7-(2-furyl)thieno[3,2-d]pyrimidin-4-yl 2-thienylmethanone]
4 nM	–	COC(=O)NCCNc1nc(C(=O)c2cccs2)c2sccc2n1 [Example 155, Methyl (2-(4-(2-thienylcarbonyl)thieno[3,2-d]pyrimidin-2-yl)aminoethyl)carbamate]
529 nM	266 to 269 °C	Cc1nc(C(C#N)c2ccccn2)c2sccc2n1 (stereo not drawn) [Example 64, 2-Methyl-α-(2-pyridyl)thieno[3,2-d]pyrimidine-4-acetonitrile]
21 nM	135.6 to 135.9 °C	COCCNc1nc(C(=O)c2cccs2)c2sccc2n1 [Example 65, 2-(2-Methoxyethylamino)thieno[3,2-d]pyrimidin-4-yl 2-thienylmethanone]
863 nM	–	CN1CCN(c2nc(C(=O)c3cccs3)c3sccc3n2)CC1 [Example 83, 2-(4-Methylpiperazinyl)thieno[3,2-d]pyrimidin-4-yl 2-thienylmethanone]
7 nM	–	O=C(c1cccs1)c1nc(NCC(O)CO)nc2ccsc12 (racemic) [Example 93, (2RS)-2-(2,3-Dihydroxypropylamino)thieno[3,2-d]pyrimidin-4-yl 2-thienylmethanone]
29 nM	–	CN(CCO)c1nc(C(=O)c2cccs2)c2sccc2n1 [Example 82, 2-(N-(2-Hydroxyethyl)-N-methylamino)thieno[3,2-d]pyrimidin-4-yl 2-thienylmethanone]
8 nM	178.6 to 179.3 °C	O=C(c1cccs1)c1nc(NCc2ccccn2)nc2ccsc12 [Example 95, 2-(2-Pyridylmethylamino)thieno[3,2-d]pyrimidin-4-yl 2-thienylmethanone]
392 nM	–	CC(C)(C)OC(=O)N1CCN(c2nc(C(=O)c3cccs3)c3sccc3n2)CC1 [Example 84, Tert-butyl 4-(4-(2-thienylcarbonyl)thieno[3,2-d]pyrimidin-2-yl)piperazinecarboxylate]
2 nM	–	O=C(c1cccs1)c1nc(NCCCn2ccnc2)nc2ccsc12 [Example 104, 2-(3-(1H-Imidazol-1-yl)propylamino)thieno[3,2-d]pyrimidin-4-yl 2-thienylmethanone]
48 nM	164.6 to 165.4 °C	CCOc1nc(C(=O)c2cccs2)c2sccc2n1 [Example 73, 2-Ethoxythieno[3,2-d]pyrimidin-4-yl 2-thienylmethanone]
105 nM	160 to 162 °C	COc1ccc(C(=O)c2nc(C(F)(F)F)nc3ccsc23)s1 [Example 68, 5-Methoxy-2-thienyl 2-trifluoromethylthieno[3,2-d]pyrimidin-4-ylmethanone]
6 nM	–	C[C@@H](O)CNc1nc(C(=O)c2cccs2)c2sccc2n1 [Example 103, (2R)-2-(2-Hydroxypropylamino)thieno[3,2-d]pyrimidin-4-yl 2-thienylmethanone]
